{"source": "patent US11083798B2", "about": "“Conjugate including peptide molecule capable of self-assembly in cell organelle and pharmaceutical composition for preventing or treating cancer including conjugate” (UNIST (ULSAN NATIONAL INSTITUTE OF SCIENCE AND TECHNOLOGY), priority 2016, dated 2021)", "key": {"HeLa cells [1]": {"tested_on": "HeLa cells", "experiment": "TEM image analysis of mitochondrial dysfunction in treated cells", "format": "cell-based, human", "details": "20 μM, 3 hours", "protocol": "To visualize the mitochondrial dysfunction induced by Mito-FF, a TEM image analysis was conducted with HeLa cells treated with Mito-FF of a concentration of 20 μM for 3 hours in the same manner as in Example 3."}, "HeLa cells [2]": {"tested_on": "HeLa cells", "experiment": "flow cytometric analysis (FACS) with annexin V/PI staining", "format": "cell-based, human", "details": "10 μM", "protocol": "For the quantitative analysis of apoptosis, flow cytometric analysis (FACS) was conducted over time with FI-TC annexin V/PI staining assay by using FACSCalibur (available from BD Bioscience), following the protocol of the manufacturer.\nIn detail, HeLa cells treated with 10 μM of Mito-FF were incubated for 4 hours or 8 hours. Then, FACS analysis was performed thereon."}, "HeLa cells [3]": {"tested_on": "HeLa cells", "experiment": "ROS generation within the cell with dihydroethidium (DHE)", "format": "cell-based, human", "text": "The mitochondrial stress may eventually lead to the whole-cell stress. […] DHE dye may intercalate with nuclear DNA and oxidizes to ethidium in the presence of ROS, which may show red fluorescence.\n(§1) TEM images of Mito-VV and Mito-FxFx were obtained by observation in the same manner as in Example 3."}, "[4]": {"tested_on": "HEK 293T normal cell lines", "experiment": "cell viability of normal cell line, Alamar Blue assay", "format": "cell-based", "details": "24 hours of treatment", "protocol": "(§2) In order to analyze cell cytotoxicity, the cancer cells were incubated in an incubator including a DMEM medium (available from Gibco) containing 10% of FBS, 1% of penicillin/streptomycin (available from Life Technologies) at a temperature of 37° C. Cell viability thereof was measured 24 hours after cell incubation, by following the protocol of the manufacturer of Alamar Blue assay (available from Thermo Fisher Scientific).\nIn order to confirm whether apoptosis occurs or not by treatment with Mito-peptides, the cell viability of HEK 293T normal cell lines treated with Mito-FF, Mito-FxFx, Mito-VV, or Mito-GG was measured in the same manner as described above."}, "HeLa cells [5]": {"tested_on": "HeLa cells", "experiment": "FITC annexin/PI staining assay, confocal microscopy", "format": "cell-based, human", "details": "10 μM, Annexin V positive, PI negative", "protocol": "Mitochondria play a vital role in the initiation of an intrinsic apoptosis cascade. It was anticipated that a Mito-peptide localized in a mitochondrion may self-assemble, thereby causing stress in the mitochondrion and inducing apoptotic mechanisms. To confirm this prediction experimentally, FITC annexin/PI staining assay was performed.\nFor the FIIC annexin/PI staining assay, HeLa cells were incubated in an incubator including a DMEM medium (available from Gibco) containing 10% of FBS and 1% of penicillin/streptomycin (available from Life Technologies) at a temperature of 37° C. 10 μM of each peptide was incubated for 1, 4, 6, 8, or 10 hours. Following the protocol of the manufacturer, the cells were incubated for 15 minutes at room temperature in the presence of 100 μL of annexin-binding buffer solution, 5 μL of Alexa Fluor 488-conjugated annexin V (V13241 available from Life Technologies), and 1 μL of a 100 μg/mL PI working solution."}, "HeLa cells [6]": {"tested_on": "HeLa cells", "experiment": "mitochondrial membrane potential depolarization with TMRM", "format": "cell-based, human", "details": "HeLa cells incubated with TMRM and peptide", "text": "Under normal conditions, the inner membrane of mitochondria is in an electrochemically polarized state with a higher concentration of H^+ in the inner membrane space. The electrochemical gradient across the membrane causes H^+ to flow to the inner membrane of mitochondria and this process is coupled with production of adenosine triphosphate (ATP). The external materials which may uncouple this process cause the flow of H^+ to be independent of ATP production. This condition is referred as mitochondrial depolarization, which serves as a preliminary indication of mitochondrial dysfunction.\nTo examine the effect of Mito-FF on the mitochondrial membrane potential, HeLa cells were incubated with TMRM and Mito-FF. The fluorescence emission from the TMRM was monitored at times lapses of 1 hour, 3 hours, and 6 hours. Red fluorescence of TMRM appears when a mitochondrial membrane is completely polarized, whereas depolarization of a mitochondrial membrane causes disappearance of TMRM red fluorescence.\nas §1"}, "HeLa cells [7]": {"tested_on": "HeLa cells", "experiment": "ROS generation within mitochondria with Mito SOX Red", "format": "cell-based, human", "details": "6 hours of incubation with HeLa cells", "text": "The mitochondrial dysfunction may result in excessive production of reactive oxygen species (ROS). To confirm the oxidative stress induced by Mito-FF, generation of ROS within mitochondria was monitored using Mito SOX Red."}, "[8]": {"experiment": "self-assembled morphology and size by electron microscopy (TEM)", "format": "physicochemical", "details": "PBS (10 mM) and water"}, "[9]": {"experiment": "liposomal leakage assay (calcein release)", "protocol": "To confirm this expectation, a liposomal leakage assay was conducted.\nThe release of a self-quenching dye such as calcine from liposome is commonly used to test integrity of lipid bilayers. […] Different concentrations of Mito-FF were added to a vesicle-containing solution, and leakage of encapsulated calcein from the vesicle was monitored."}, "[10]": {"experiment": "critical aggregation concentration (CAC) by pyrene excitation method", "format": "physicochemical", "details": "pyrene excitation spectrum, I344/I339", "protocol": "In order to verify whether intracellular self-assembly of the Mito-FF according to the present disclosure can occur or not, the CAC of the Mito-FF was measured as follows.\nIntensities of emission at 344 nanometers (nm) and 339 nm in a pyrene excitation spectrum differ according to whether pyrene molecules are present as unaggregated individual molecules or as aggregated molecules. The intensities at 344 nm and 339 nm in the excitation spectrum were measured, and the ratio of an intensity in the excitation spectrum at 344 nm to an intensity in the excitation spectrum at 339 nm was calculated. Based on the standard curve shown in FIG. 4, the CAC for Mito-FF was determined."}, "[11]": {"tested_on": "HeLa, MDA-MB-486, MCF10, PC3, SCC7, HEK293T, NIH-3T3", "experiment": "cell cytotoxicity, Alamar Blue assay, variety of cell lines", "format": "cell-based", "details": "24 hours, FIG. 33, read-out: IC50 (cell viability)", "protocol": "After the confirmation of the intra-mitochondrial assembly of peptide amphiphile, the toxicity of Mito-peptides toward a variety of cells was analyzed, the cells including cancer cell lines such as HeLa (ATCC, cervical cancer), MDA-MB-486 (ATCC) (mammary cancer) MCF10 (breast cancer), PC3 (ATCC, prostate cancer), SCC7 (ATCC, skin cancer), HEK293T (ATCC), and NIH-3T3 (ATCC).\nas §2"}, "HeLa cells [12]": {"tested_on": "HeLa cells", "details": "24 hours, FIG. 32"}}, "data": [{"compound": "NC(=O)[C@H](CCCCNCCCCC[P+](c1ccccc1)(c1ccccc1)c1ccccc1)NC(=O)[C@H](Cc1ccccc1)NC(=O)[C@H](Cc1ccccc1)NC(=O)CCCc1ccc2ccc3cccc4ccc1c2c34", "note": "[Mito-FF]", "values": [{"measurement": "state of mitochondrion in TEM image", "setting": "HeLa cells [1]", "result": "severely damaged"}, {"measurement": "time at which late apoptotic stage started", "setting": "HeLa cells [2]", "result": "> 10", "unit": "h"}, {"measurement": "total population of the cells that entered an early apoptotic stage", "setting": "HeLa cells [2]; within 2 hours", "result": "about 81.2%"}, {"measurement": "ROS generation within the cell (DHE)", "setting": "HeLa cells [3]", "result": "significant ROS was generated"}, {"measurement": "toxicity against normal cells", "setting": "[4]", "result": "innocuous"}, {"measurement": "time until cells entered an early apoptotic stage", "setting": "HeLa cells [5]", "result": "≤ 6", "unit": "h"}, {"measurement": "time until red fluorescence of TMRM disappeared (membrane depolarization)", "setting": "HeLa cells [6]", "result": "≤ 6", "unit": "h"}, {"measurement": "ROS generation inside mitochondria (Mito SOX Red)", "setting": "HeLa cells [7]", "result": "ROS was generated inside the mitochondria"}, {"measurement": "average length of nanofibers", "setting": "[8]", "result": 500, "unit": "nm"}, {"measurement": "average width of individual fibers", "setting": "[8]", "result": 10, "unit": "nm"}, {"measurement": "dye leakage at a concentration below the CAC", "setting": "[9]; concentration below the CAC", "result": "did not induce any dye leakage"}, {"measurement": "leakage of calcein / dye release from liposome", "setting": "[9]; within 24 hours", "result": 100, "unit": "%"}, {"measurement": "critical aggregation concentration (CAC)", "setting": "[10]", "result": 60, "unit": "µM"}]}, {"compound": "NC(=O)[C@H](CCCCNCCCCC[P+](c1ccccc1)(c1ccccc1)c1ccccc1)NC(=O)[C@H](CC1CCCCC1)NC(=O)[C@H](CC1CCCCC1)NC(=O)CCCc1ccc2ccc3cccc4ccc1c2c34", "note": "[Mito-FxFx]", "values": [{"measurement": "ROS generation within the cell (DHE)", "setting": "HeLa cells [3]", "result": "ROS generation"}, {"measurement": "IC50", "setting": "[11]", "result": 10, "unit": "µM"}]}, {"compound": "CC(C)[C@H](NC(=O)CCCc1ccc2ccc3cccc4ccc1c2c34)C(=O)N[C@H](C(=O)N[C@@H](CCCCNCCCCC[P+](c1ccccc1)(c1ccccc1)c1ccccc1)C(N)=O)C(C)C", "note": "[Mito-VV]", "values": [{"measurement": "ROS generation within the cell (DHE)", "setting": "HeLa cells [3]", "result": "ROS generation"}, {"measurement": "IC50", "setting": "[11]", "result": 10, "unit": "µM"}]}, {"compound": "pyrene-FFKFxrFxr", "values": [{"measurement": "toxicity in HeLa cells", "setting": "HeLa cells [12]", "result": "significant toxicity"}]}]}
